These are literature values, as cited in US6107342A, “2-amino-bicyclo[3.1.0]hexane-2,6-dicarboxylic acid derivatives and a process for the preparation thereof” (Hoffmann-La Roche Inc., priority 1998, dated 2000).

The target in one series is mGluR3. As to conditions: Mol. Pharmacology, Vol.53, 228-233 (1998).
The next series concerns the target mGluR2. Conditions: Mol. Pharmacology, Vol.53, 228-233 (1998).
Series [1] concerns the target group II metabotropic glutamate receptor. As to conditions: antagonism of inhibition by LY354740; Mol. Pharmacology, Vol.53, 228-233 (1998).

Turning to `N[C@]1(C(=O)O)[C@H]2[C@@H](C[C@H]1O)[C@@H]2C(=O)O` [I-A, (1S,2R,3R,5R,6S)-2-amino-3-hydroxy-bicyclo [3.1.0]hexane-2,6-dicarboxylic acid], the values for the Ki on mGluR3 and on mGluR2 were 89 nM and 52 nM, respectively. In addition, the pKB in series [1] is 6.0.

The term Ki denotes a dissociation constant, usually derived from enzyme kinetics or from competition with a known ligand. What is called pKB is −log10 of the KB, conventionally taken in molar units.
